Laboratory results taken from patent US20220119354A1, “DIAMINO-SUBSTITUTED PYRIDINES AND PYRIMIDINES AS HERBICIDES” (FMC Corporation, priority 2019, published 2022).

Assays:
Type in all cases: in vivo
[1] = system: galium (catchweed bedstraw, Galium aparine); assay: Test A postemergence, galium; details: 0 to 100 scale
In short: (§1)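 Plants grown in a loam soil and sand blend were treated either preemergence by directed soil spray or postemergence when 2 to 10 cm tall (one- to two-leaf stage). Formulation: non-phytotoxic solvent mixture with surfactant. Greenhouse hold ~10 d, then visual injury assessment on a 0–100 scale.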

[2] = system: barnyardgrass (Echinochloa crus-galli); assay: Test A preemergence, barnyardgrass; details: 0 to 100 scale; for Barnyardgrass plant response rating: 0 is no effect, 100 is complete control
In short: as §1

[3] = system: foxtail, giant (Setaria faberii); assay: Test A preemergence, giant foxtail; details: 0 to 100 scale; for Foxtail, Giant plant response rating: 0 is no effect, 100 is complete control
In short: as §1

[4] = system: pigweed (Amaranthus retroflexus); assay: Test A postemergence, pigweed; details: 0 to 100 scale
In short: as §1

[5] = system: wheat (Triticum aestivum); assay: Test A postemergence, wheat; details: 0 to 100 scale
In short: as §1

[6] = system: ryegrass, Italian (Lolium multiflorum); assay: Test A preemergence, Italian ryegrass; details: 0 to 100 scale; for Ryegrass, Italian plant response rating: 0 is no effect, 100 is complete control
In short: as §1

[7] = system: pigweed (Amaranthus retroflexus); assay: Test A preemergence, pigweed; details: 0 to 100 scale; for Pigweed plant response rating: 0 is no effect, 100 is complete control
In short: as §1

[8] = system: ryegrass, Italian (Lolium multiflorum); assay: Test A postemergence, Italian ryegrass; details: 0 to 100 scale
In short: as §1

[9] = system: ragweed (common ragweed, Ambrosia elatior); assay: Test A postemergence, ragweed; details: 0 to 100 scale
In short: as §1

[10] = system: kochia (Kochia scoparia); assay: Test A preemergence, kochia; details: 0 to 100 scale; for Kochia plant response rating: 0 is no effect, 100 is complete control
In short: as §1

[11] = system: corn (Zea mays); assay: Test A postemergence, corn; details: 0 to 100 scale
In short: as §1

[12] = system: rice (Oryza sativa); assay: Test B flooded paddy test, rice; details: Flood, 250 g ai/ha, applied to paddy water, 2-leaf stage, visual evaluation after 13 to 15 d
In short: (§2)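 Rating: 0 = no effect, 100 = complete control, visual, relative to untreated plants. Conditions: 2-leaf stage, 3 cm flood kept constant, compound put directly into water, 13–15 d greenhouse.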

[13] = system: ducksalad (Heteranthera limosa); assay: Test B flooded paddy test, ducksalad; details: Flood, 250 g ai/ha, applied to paddy water, 2-leaf stage, visual evaluation after 13 to 15 d
In short: as §2

[14] = system: blackgrass (Alopecurus myosuroides); assay: Test A postemergence, blackgrass; details: 0 to 100 scale
In short: as §1

[15] = system: barnyardgrass (Echinochloa crus-galli); assay: Test B flooded paddy test, barnyardgrass; details: Flood, 250 g ai/ha, applied to paddy water, 2-leaf stage, visual evaluation after 13 to 15 d
In short: as §2

[16] = system: ragweed (common ragweed, Ambrosia elatior); assay: Test A preemergence, ragweed; details: 0 to 100 scale; for Ragweed plant response rating: 0 is no effect, 100 is complete control
In short: as §1

[17] = system: foxtail, giant (Setaria faberii); assay: Test A postemergence, giant foxtail; details: 0 to 100 scale
In short: as §1

[18] = system: sedge, umbrella (small-flower umbrella sedge, Cyperus difformis); assay: Test B flooded paddy test, umbrella sedge; details: Flood, 250 g ai/ha, applied to paddy water, 2-leaf stage, visual evaluation after 13 to 15 d
In short: as §2

[19] = system: barnyardgrass (Echinochloa crus-galli); assay: Test A postemergence, barnyardgrass; details: 0 to 100 scale
In short: as §1

[20] = system: kochia (Kochia scoparia); assay: Test A postemergence, kochia; details: 0 to 100 scale
In short: as §1

[21] = 125 g ai/ha, 0 no effect, 100 complete control
[22] = 500 g ai/ha, 0 is no effect, 100 is complete control

SMILES: Cc1cc(F)cc(OCC(C)Nc2ncc(C(F)(F)F)c(N)n2)c1 (centres unmarked) [Compound 39]
- Plant response rating, Galium ([1]; 125 g ai/ha): 70
- Plant response rating, Galium ([1]; 500 g ai/ha): 70
- Barnyardgrass plant response rating ([2]; 125 g ai/ha): 40
- Plant response rating, Barnyardgrass ([2]; 500 g ai/ha): 90
- Plant response rating, Foxtail, Giant ([3]; 500 g ai/ha): 90
- Plant response rating, Pigweed ([4]; 125 g ai/ha): 20
- Plant response rating, Pigweed ([4]; 500 g ai/ha): 60
- Plant response rating, Wheat ([5]; 125 g ai/ha): 0
- Plant response rating, Wheat ([5]; 500 g ai/ha): 0
- Ryegrass, Italian plant response rating ([6]; 125 g ai/ha): 0
- Plant response rating, Ryegrass, Italian ([6]; 500 g ai/ha): 10
- Pigweed plant response rating ([7]; 125 g ai/ha): 70
- Plant response rating, Pigweed ([7]; 500 g ai/ha): 80
- Plant response rating, Ryegrass, Italian ([8]; 125 g ai/ha): 0
- Plant response rating, Ryegrass, Italian ([8]; 500 g ai/ha): 50
- Plant response rating, Ragweed ([9]; 125 g ai/ha): 0
- Plant response rating, Ragweed ([9]; 500 g ai/ha): 40
- Kochia plant response rating ([10]; 125 g ai/ha): 0
- Plant response rating, Kochia ([10]; 500 g ai/ha): 80
- Plant response rating, Corn ([11]; 125 g ai/ha): 10
- Plant response rating, Corn ([11]; 500 g ai/ha): 20
- Plant response rating, Rice (0 to 100 scale, 0 is no effect, 100 is complete control) [12]: 0
- Plant response rating, Ducksalad (0 to 100 scale, 0 is no effect, 100 is complete control) [13]: 0
- Plant response rating, Blackgrass ([14]; 125 g ai/ha): 0
- Plant response rating, Blackgrass ([14]; 500 g ai/ha): 0
- Plant response rating, Barnyardgrass (0 to 100 scale, 0 is no effect, 100 is complete control) [15]: 0
- Ragweed plant response rating ([16]; 125 g ai/ha): 70
- Plant response rating, Ragweed ([16]; 500 g ai/ha): 100
- Plant response rating, Foxtail, Giant ([17]; 125 g ai/ha): 0
- Plant response rating, Foxtail, Giant ([17]; 500 g ai/ha): 10
- Plant response rating, Sedge, Umbrella (0 to 100 scale, 0 is no effect, 100 is complete control) [18]: 0
- Plant response rating, Barnyardgrass ([19]; 125 g ai/ha): 0
- Plant response rating, Barnyardgrass ([19]; 500 g ai/ha): 0
- Plant response rating, Kochia ([20]; 125 g ai/ha): 40
- Plant response rating, Kochia ([20]; 500 g ai/ha): 70

SMILES: CC(Nc1ncc(C(F)(F)F)c(N)n1)c1csc2ccccc12 (centres unmarked) [Compound 40]
- Plant response rating, Galium ([1]; 125 g ai/ha): 60
- Plant response rating, Galium ([1]; 500 g ai/ha): 90
- Barnyardgrass plant response rating ([2]; 125 g ai/ha): 30
- Plant response rating, Barnyardgrass ([2]; 500 g ai/ha): 80
- Foxtail, Giant plant response rating ([3]; 125 g ai/ha): 10
- Plant response rating, Foxtail, Giant ([3]; 500 g ai/ha): 90
- Plant response rating, Pigweed ([4]; 125 g ai/ha): 80
- Plant response rating, Pigweed ([4]; 500 g ai/ha): 100
- Plant response rating, Wheat ([5]; 125 g ai/ha): 0
- Plant response rating, Wheat ([5]; 500 g ai/ha): 0
- Ryegrass, Italian plant response rating ([6]; 125 g ai/ha): 20
- Plant response rating, Ryegrass, Italian ([6]; 500 g ai/ha): 100
- Pigweed plant response rating ([7]; 125 g ai/ha): 100
- Plant response rating, Pigweed ([7]; 500 g ai/ha): 100
- Plant response rating, Ryegrass, Italian ([8]; 125 g ai/ha): 30
- Plant response rating, Ryegrass, Italian ([8]; 500 g ai/ha): 0
- Plant response rating, Ragweed ([9]; 125 g ai/ha): 30
- Plant response rating, Ragweed ([9]; 500 g ai/ha): 60
- Kochia plant response rating ([10]; 125 g ai/ha): 60
- Plant response rating, Kochia ([10]; 500 g ai/ha): 60
- Plant response rating, Corn ([11]; 125 g ai/ha): 0
- Plant response rating, Corn ([11]; 500 g ai/ha): 10
- Plant response rating, Rice (0 to 100 scale, 0 is no effect, 100 is complete control) [12]: 0
- Plant response rating, Ducksalad (0 to 100 scale, 0 is no effect, 100 is complete control) [13]: 20
- Plant response rating, Blackgrass ([14]; 125 g ai/ha): 0
- Plant response rating, Blackgrass ([14]; 500 g ai/ha): 10
- Plant response rating, Barnyardgrass (0 to 100 scale, 0 is no effect, 100 is complete control) [15]: 20
- Ragweed plant response rating ([16]; 125 g ai/ha): 90
- Plant response rating, Ragweed ([16]; 500 g ai/ha): 100
- Plant response rating, Foxtail, Giant ([17]; 125 g ai/ha): 0
- Plant response rating, Foxtail, Giant ([17]; 500 g ai/ha): 20
- Plant response rating, Sedge, Umbrella (0 to 100 scale, 0 is no effect, 100 is complete control) [18]: 40
- Plant response rating, Barnyardgrass ([19]; 125 g ai/ha): 0
- Plant response rating, Barnyardgrass ([19]; 500 g ai/ha): 60
- Plant response rating, Kochia ([20]; 125 g ai/ha): 50
- Plant response rating, Kochia ([20]; 500 g ai/ha): 90

SMILES: C[C@@H](Nc1ncc(C(F)(F)F)c(N)n1)c1csc2ccccc12 [Compound 41]
- Plant response rating, Galium [1, 21]: 50
- Galium plant response rating [1, 22]: 70
- Barnyardgrass plant response rating ([2]; 125 g ai/ha): 40
- Barnyardgrass plant response rating ([2]; 500 g ai/ha): 90
- Foxtail, Giant plant response rating ([3]; 125 g ai/ha): 30
- Foxtail, Giant plant response rating ([3]; 500 g ai/ha): 90
- Plant response rating, Pigweed [4, 21]: 90
- Pigweed plant response rating [4, 22]: 100
- Plant response rating, Wheat [5, 21]: 0
- Wheat plant response rating [5, 22]: 0
- Ryegrass, Italian plant response rating ([6]; 125 g ai/ha): 20
- Ryegrass, Italian plant response rating ([6]; 500 g ai/ha): 80
- Pigweed plant response rating ([7]; 125 g ai/ha): 80
- Pigweed plant response rating ([7]; 500 g ai/ha): 100
- Plant response rating, Ryegrass, Italian [8, 21]: 20
- Ryegrass, Italian plant response rating [8, 22]: 70
- Plant response rating, Ragweed [9, 21]: 60
- Ragweed plant response rating [9, 22]: 90
- Kochia plant response rating ([10]; 125 g ai/ha): 70
- Kochia plant response rating ([10]; 500 g ai/ha): 90
- Plant response rating, Corn [11, 21]: 10
- Corn plant response rating [11, 22]: 20
- Plant response rating, Rice (0 to 100 scale, 0 is no effect, 100 is complete control) [12]: 0
- Plant response rating, Ducksalad (0 to 100 scale, 0 is no effect, 100 is complete control) [13]: 35
- Plant response rating, Blackgrass [14, 21]: 0
- Blackgrass plant response rating [14, 22]: 0
- Plant response rating, Barnyardgrass (0 to 100 scale, 0 is no effect, 100 is complete control) [15]: 15
- Ragweed plant response rating ([16]; 125 g ai/ha): 90
- Ragweed plant response rating ([16]; 500 g ai/ha): 100
- Plant response rating, Foxtail, Giant [17, 21]: 50
- Foxtail, Giant plant response rating [17, 22]: 100
- Plant response rating, Sedge, Umbrella (0 to 100 scale, 0 is no effect, 100 is complete control) [18]: 65
- Plant response rating, Barnyardgrass [19, 21]: 0
- Barnyardgrass plant response rating [19, 22]: 50
- Plant response rating, Kochia [20, 21]: 70
- Kochia plant response rating [20, 22]: 90
